Test results published in patent publication US20140303386A1, “COMPOSITIONS AND METHODS FOR ENHANCING LIPID PRODUCTION IN […] INDUCTION OF CELL CYCLE ARREST” (RUTGERS, THE STATE UNIVERSITY OF NEW JERSEY, priority 2011, published 2014).

How the values were obtained:
Assay type in all cases: cell-based
[1] = system: marine diatom Phaeodactylum tricornutum; assay: Protein synthesis in treated cells; details: treated vs untreated cells
Experimental: (§1) Cultures were grown in continuous light at approximately 70 μmol quanta m^−2s^−1, in nutrient-replete conditions (F/2 media). […] The CDK inhibitor was applied when cells were growing exponentially (cell concentration was between 250,000-700,000 cells/ml).

[2] = system: marine diatom Phaeodactylum tricornutum; assay: Photosynthetic health (Fv/Fm, chlorophyll per cell, a*); details: treated vs untreated cells
Experimental: as §1

[3] = system: marine diatom Phaeodactylum tricornutum; assay: Fatty acid content / synthesis per cell
Experimental: as §1

[4] = system: marine diatom Phaeodactylum tricornutum; assay: Cell cycle analysis (propidium iodide DNA stain, flow cytometry); details: higher dose of inhibitor
Experimental: as §1

Nc1nc(OCC2CCCCC2)c2nc[nH]c2n1 [NU 2058, 6-(Cyclohexylmethoxy)-9H-purin-2-amine]
protein synthesis, lower than in untreated cells [1]: about 18%
photosynthetic capacity (Fv/Fm, chlorophyll per cell, a*) [2]: no appreciable differences
increase in fatty acid synthesis compared to untreated cells ([3]; 7 μM, over a period of one day): 80%
fatty acid content per cell ([3]; higher dose of inhibitor): higher fatty acid content per cell
percentage of cells arrested in G1 [4]: higher percentage of cells arrested in G1
